From patent US7411003B1, “Inhibition of Hepatitis B virus by cyclohexenone compounds from Antrodia camphorata” (Golden Biotechnology Corporation, priority 2007, dated 2008)

Key:
HbsAg = experiment: Synthesis/secretion of HbsAg in hepatoma cell line, semi-quantitative ELISA; format: cell-based, hepatitis B virus; conditions: HepG2 2.2.1 cells, 22 hours
Protocol: (§1) The effects of cyclohexenone compounds of Antrodia camphorata purified from Example 1 on synthesis of HbsAg and HbeAg were tested in this example. The compound 4-hydroxy-2,3-dimethoxy-6-methyl-5(3,7,11-trimethyl-dodeca-2,6,10-trienyl)-cyclohex-2-enone from example 1 was added into the culture media of hepatoma cell line HepG2 2.2.1 to determine the synthesis of HbsAg and HbeAg with the semi-quantitative enzyme-linked immunoabsorbent assay (ELISA). These two makers were used to assess the effectiveness of cyclohexenone in HBV inhibition. […]
(§2) The HepG2 2.2.1 cells were cultivated in minimum essential medium (MEM, Gibco Co., USA) containing 12 essential amino acids, glutamine, 8 vitamins, and supplemented with 10% fetal bovine serum and 200 μg/ml of antibiotic G418 for 24 hours. […] The assay was based on formation of sandwich complexes of antibody-antigen-antibody/enzyme and stained with O-phenylenediamine (OPD) color development solution and the results were expressed as absorbance units at 450 nm. Specimens with absorbance values above the cut off value are taken as positive for HbsAg and HBeAg. […]

[1] = tested on: hepatoma cell line HepG2 2.2.15; experiment: In vitro cytotoxic test on hepatoma cell line, MTT assay, survival rates; format: cell-based, human; conditions: HepG2 2.2.1 cells, 10 μg/ml, 22 hours, compared with blank group
Protocol: Hepatoma cell inhibiting effects of cyclohexenone compounds of Antrodia camphorata from example 1 were assessed according to the anticancer-drug screening model of National Cancer Institute (NCI). The compound 4-hydroxy-2,3-dimethoxy-6-methyl-5(3,7,11-trimethyl-dodeca-2,6,10-trienyl)-cyclohex-2-enone from example 1 was added into the culture media of hepatoma cell line HepG2 2.2.15 to test the survival rates. Survival of cells was analyzed using MTT assay. HepG2 2.2.15 cell line was derived from human hepatoma, which can secrete infectious HBV.
MTT assay is commonly used to analyze cell proliferation, survival rate of viable cells and cytotoxicity. MTT (3[4,5-dimethylthiazol-2-yl]-2,5-diphenyltetrazolium bromide) is a yellow dye which can be converted to water-insoluble purple formazan on the reductive cleavage of its tetrazolium ring by the succinate tetrazolium reductase in mitrochondria of cells. The amount of formazan produced is used to detect the number of viable cells and calculate the survival rates.
The HepG2 2.2.1 cells were cultivated in minimum essential medium (MEM, Gibco Co., USA) containing 12 essential amino acids, glutamine, 8 vitamins, and supplemented with 10% fetal bovine serum and 200 μg/ml of antibiotic G418 for 24 hours. […] The absorbances were measured at 570 nm with an ELISA Reader and compared with that of the blank group to calculate the survival rates.

HbeAg = experiment: Synthesis/secretion of HbeAg in hepatoma cell line, semi-quantitative ELISA; format: cell-based, hepatitis B virus; conditions: HepG2 2.2.1 cells, 22 hours
Protocol: as §1, §2

For COC1=C(OC)C(O)C(C/C=C(\C)CC/C=C(\C)CCC=C(C)C)C(C)C1=O (centres unmarked) [cyclohexenone from Antrodia camphorata, 4-hydroxy-2,3-dimethoxy-6-methyl-5(3,7,11-trimethyl-dodeca-2,6,10-trienyl)-cyclohex-2-enone], the “Synthesis of HbsAg” value (HbsAg; 0.1 μg/ml) was “below 60%”, the “Synthesis of HbsAg (decrease could reach to as low as)” value (HbsAg; 10 μg/ml) was 28% and the cell survival rates [1] was “lower than 81%”. For the same molecule, the “Synthesis of HbeAg” value (HbeAg; 0.1 μg/ml) was “below 84%” and the “Synthesis of HbeAg (decrease could reach to as low as)” value (HbeAg; 1 μg/ml) was 57%.
